Test results from article PMC5845353, “The selective cathepsin K inhibitor MIV-711 attenuates joint pathology in experimental animal models of osteoarthritis” (Journal of Translational Medicine, 2018).

Columns and labels:
[1] = system: rabbits subjected to anterior cruciate ligament transection (ACLT); assay: Rabbit ACLT study, µCT osteophyte volume; assay type: in vivo; conditions: 30 and 100 µmol/kg, data not shown
Procedure: Starting 1 week after sham operation or ACLT, animals were dosed daily for 7 weeks by oral gavage with either MIV-711 (synthesized by Medivir and given as a suspension in 1% Methocel A4C in water) or vehicle (1% Methocel A4C in water) at a dose volume of 4 mL/kg. The four treatment groups (n = 7 in each group) were: (1) sham + vehicle; (2) ACLT + vehicle; (3) ACLT + MIV-711, 30 µmol/kg (low dose) and (4) ACLT + MIV-711, 100 µmol/kg (high dose).
Femora and tibias from all animals were subjected to µCT scanning without and with contrast reagent, to visualize bone and cartilage, respectively. Samples were scanned on a high-resolution, volumetric µCT scanner (μCT40, ScanCo Medical, Zurich, CH). The image data was acquired with the following parameters: 36 μm isotropic voxel resolution at 300 ms exposure time, 2000 views and 1 frame per view. Each sample was scanned twice, once for acquiring bone data and once for soft tissue data. […] After the segmentation process, the voxel count associated with each of the regions of interest was calculated using VHLab. […] Cartilage thickness was calculated using SCIRun (Scientific Computing and Imaging Institute, University of Utah). The distance from the bone to the outer surface of the articulating cartilage was calculated. […] Similarly, the thickness and thickness map image of the subchondral bone was calculated. […]

[2] = Synovial fluid concentrations of MIV-711 in dogs; assay type: in vivo; conditions: dog
Procedure: Synovial fluid was collected from as many dogs as possible immediately before surgery and then again during necropsy from both operated and contralateral knees. The fluid was sampled directly without lavage using a syringe. The synovial fluid was transferred into tubes containing EDTA. The samples were spun in a centrifuge, and the supernatant was collected and stored at − 70 °C until analysis.
To measure MIV-711 concentrations, 10–50 µL of plasma or synovial fluid was mixed with 30–150 µL of acetonitrile, samples were centrifuged (10 min, 20,000g, 7 °C) and 5 µL of the supernatant was injected onto the LC–MS/MS system. The lower limit of quantification (LLOQ) was 1 nmol/L.

[3] = system: dogs subjected to partial medial meniscectomy; assay: Dog partial medial meniscectomy study, osteophyte measurement and grades; assay type: in vivo
Procedure: Osteophytes for each compartment were measured (basal endochondral ossification to surface of cartilage cap) and severity grades assigned according to the following: […]

dog cathepsin K enzyme = conditions: read-out: Ki against dog cathepsin K enzyme; cited from earlier work

C#C[C@@H]1CN(C(=O)[C@H](CC(C)C)NC(=O)c2ccc(-c3nc(N4CCN(C)CC4)sc3F)cc2)[C@@H]2C(=O)CO[C@H]12 [MIV-711]
effect on osteophyte volumes in femur and tibia (µCT) [1]: not apparently affected | MIV-711 levels in synovial fluid ([2]; 24 h after first dose and 24 h after last dose of 30 µmol/kg): low but measurable | MIV-711 levels in synovial fluid, injured left knee compared to right knee ([2]; at sacrifice, 24 h after last dose of 30 µmol/kg): fivefold higher | Osteophyte Score ([3]; MIV-711 group mean): 0.00 | Osteophyte Measure ([3]; individual dogs of MIV-711 group): 0 µm | Osteophyte Score ([3]; individual dogs of MIV-711 group, mean of 3 sections): 0.00 | Ki (dog cathepsin K enzyme): 1.5 nM
